Measured values as given in patent US10626349B2, “Cleavable surfactants” (PROMEGA CORPORATION, priority 2007, dated 2020).

Key:
[1] = biological target: T1, Myoglobin from horse heart digested with trypsin (Equus caballus, UniProt P68082); test: Myoglobin/Trypsin digest, HPLC peak area versus RapiGest control; type: biochemical; conditions: 0.01% surfactant, trypsin 50:1, 20 minutes at 37° C.; ratio to RapiGest control, >1 = more digestion
T1 construct: Myoglobin from horse heart; from tissue; host or cells: horse heart
T1 sequence (P68082 2-154 limits assumed): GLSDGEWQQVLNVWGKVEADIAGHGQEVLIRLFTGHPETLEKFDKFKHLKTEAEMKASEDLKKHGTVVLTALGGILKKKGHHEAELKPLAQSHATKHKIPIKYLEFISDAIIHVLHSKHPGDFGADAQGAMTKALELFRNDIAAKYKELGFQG
Description: Myoglobin from horse heart (typically 25 μs) was digested with trypsin (Promega) at a 50:1 ratio in a volume of 125 μL (typical) of 50 mM Ammonium bicarbonate for 20 minutes at 37° C. with 0.01% RapiGest™ surfactant or 0.01% of the indicated compound of the invention (upper and lower chromatograms, respectively). TFA was added to 0.5-2% and the mixtures were incubated at 37° C. or 65° C. for 20 or 30 minutes. Degraded surfactant was removed by centrifugation at 14,000×g for 5 minutes. HPLC analysis was performed on a 25-50 μL reaction sample using an HP1050 LC system with an Agilent Sorbax SB-C18 column (3.0×100 mm, 3.5 micron) and a gradient of 0.1% TFA (97.5% initial) and Acetonitrile, 0.01% TFA (55% final condition followed by a 100% wash step) and a flow rate of 0.75 mL/min. Peptides were detected at 214 and 280 nm.
(§1) For each compound numbered below in Example 12, the rate of enhanced digestion was determined from the ratio of the surfactant peak area (surfactant # Pk. Area) to the Rapigest™ surfactant peak area (RG Pk area). Peak area was determined as the sum of all peaks integrated from 8-22 minutes.

[2] = biological target: T2, Bacteriorhodopsin digested with chymotrypsin (Halobacterium salinarum, UniProt P02945); test: Bacteriorhodopsin/Chymotrypsin digest, HPLC peak area versus RapiGest control; type: biochemical; conditions: 0.025% surfactant, BR heated (boiled) with surfactant 5 minutes at 95° C., chymotrypsin 10:1, 1 hour at 37° C.; ratio to RapiGest control
T2 sequence (P02945 14-261 limits assumed): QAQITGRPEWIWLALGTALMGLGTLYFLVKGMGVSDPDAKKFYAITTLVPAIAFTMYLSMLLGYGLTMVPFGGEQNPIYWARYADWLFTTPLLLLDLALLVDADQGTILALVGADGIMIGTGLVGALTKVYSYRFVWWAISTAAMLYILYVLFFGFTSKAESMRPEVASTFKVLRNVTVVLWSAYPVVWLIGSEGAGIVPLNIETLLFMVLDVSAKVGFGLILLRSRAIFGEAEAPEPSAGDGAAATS
Description: Bacteriorhodopsin (25 μs) was heated with 0.025% Rapigest™ surfactant or the indicated compound of the invention for 5 minutes at 95° C., then digested with chymotrypsin (Sigma) at a 10:1 ratio in 125 μL 50 mM Ammonium bicarbonate for 1 hour at 37° C. After one hour TFA was added to 0.5-2% and the mixtures were incubated at 37° C. or 65° C. for 20 or 30 minutes. Degraded surfactant was removed by centrifugation at 14,000×g for 5 minutes. An aliquot of 50-100 μL of digested protein was analyzed by HPLC as described above.
Compound 3211, 3212, 3224 and Rapigest™ surfactant control for FIG. 13C reactions: Bacteriorhodopsin (25 μs) was solubilized with 0.025% compound of interest for 1-2 minutes at room temperature, then digested with chymotrypsin (Sigma) at a 10:1 ratio in 125 μL 50 mM Ammonium bicarbonate for 1 hour at 37° C. After one hour TFA was added to 0.5-2% and the mixtures were incubated at 37° C. or 65° C. for 20 or 30 minutes. Degraded surfactant was removed by centrifugation at 14,000×g for 5 minutes. An aliquot of 50-100 μL of digested protein was analyzed by HPLC as described above.
as §1

[3] = Solubility of the surfactant; conditions: for solubility in aqueous solutions (concentration dissolved to) / solubility in aqueous solutions (in words): aqueous solution; for solubilized in DMSO to: 100% DMSO; for solubility (concentration dissolved to): in 50 mM ammonium bicarbonate
[4] = Acid and thermal degradation of the surfactant; conditions: for degradation after overnight incubation (in words): concentration not given; for acid-lability (in words): 0.5% TFA at 37° C. where stated (3237: 30 minutes), 3271 by TLC analysis; for thermolability (in words): 3266: 5 minutes at 95° C.; for degradation by acid (0.5% TFA) or by heat (boiling), in words: 3236: 0.1% solution in 0.5% TFA 30 minutes at 37° C. or 5 minutes of boiling without TFA
[5] = Hydrolytic stability in 50 mM ammonium bicarbonate (reverse-phase HPLC); type: physicochemical; set-up: key: >>: compound 100% stable over course of experiment
Description: Hydrolytic stability was measured by monitoring the change in retention time of the intact surfactant by reverse-phase HPLC. The ½-life is defined as the time required to reach 50% degradation.

[6] = surfactant conc. 0.025% in 50 mM ammonium bicarbonate
[7] = surfactant conc. 1% in 50 mM ammonium bicarbonate

Structure (SMILES)	surfactant Pk area/RG Pk area, Myoglobin/Trypsin digest [1]	surfactant Pk area/RG Pk area, Bacteriorhodopsin/Chymotrypsin digest [2]	solubility in aqueous solutions (concentration dissolved to) [3]	also measured
CCCCCCCCCCCC(C)(C)OC(=O)Nc1ccc(N(CCCCS(=O)(=O)[O-])CCCCS(=O)(=O)O)cc1.[Na+] [Compound 3194]	0.72	1.1	0.5%	degradation after overnight incubation (in words) [4]: No degradation was observed even after overnight incubation
CCCCCCCCCCOc1ccc(C(OCCN(CCCCS(=O)(=O)[O-])CCCCS(=O)(=O)[O-])(c2ccccc2)c2ccc(OCCCCCCCCCC)cc2)cc1.[Na+].[Na+] [Compound 3218]	0.3	0.65	–	solubilized in DMSO to [3]: 10%; solubility in aqueous solutions (in words) [3]: Insoluble in aqueous solutions
CCCCCCCCCCC(OC(=O)NCCCS(=O)(=O)O)c1ccc(Br)o1 (stereo not shown) [Compound 3270]	0.8	–	0.5%	½-life [5, 6]: 6.5 h; ½-life [5, 7]: 40 h
CCCCCCCCCCC(OC(=O)NCCCS(=O)(=O)O)c1ccsc1 (stereo not shown) [Compound 3273]	0.75	–	1%	acid-lability (in words) [4]: Just partially acid-labile; thermolability (in words) [4]: thermostable
CCCCCCC(OC(=O)NCCCS(=O)(=O)O)c1ccc(C(F)(F)F)cc1 (stereo not shown) [Compound 3199]	0.37	–	0.5%	degradation after overnight incubation (in words) [4]: No degradation was observed even after overnight incubation
CCCCCCCCCCC(OC(=O)NCCCS(=O)(=O)O)c1ccc(Cl)o1 (stereo not shown) [Compound 3274]	1	–	1%	½-life [5, 6]: ~6 h; degradation by acid (0.5% TFA) or by heat (boiling), in words [4]: Acid- and thermolabile
CCCCCCCCCCC(OC(=O)NCCCS(=O)(=O)O)c1cccs1 (stereo not shown) [Compound 3269]	1	–	1%	½-life ([5]; surfactant conc. 0.03% in 50 mM ammonium bicarbonate): 7 h; ½-life [5, 7]: 135 h
CCCCCC/C=C/C(C)OC(=O)NCCCS(=O)(=O)O (stereo not shown) [Compound 3201]	0.3	0.4	0.5%	–
CCCCCCCCCCC(OC(=O)NCCCS(=O)(=O)O)c1ccc(C(F)(F)F)o1 (stereo not shown) [Compound 3275]	0.2	–	1%	½-life [5, 6]: >300 h; ½-life [5, 7]: >>; degradation by acid (0.5% TFA) or by heat (boiling), in words [4]: Fully acid- and thermostable at the tested conditions
CCCCCCCCCCC(OC(=O)NCCCS(=O)(=O)O)c1ccc(C(F)(F)F)cc1 (stereo not shown) [Compound 3200]	0.7	0.8	~0.01%	degradation after overnight incubation (in words) [4]: No degradation was observed even after overnight incubation
CCCCCCCCCCCC(C)(C)OC(=O)Oc1ccc(NCCCCS(=O)(=O)O)cc1 [Compound 3195]	0.5	–	not more than 0.2%	degradation after overnight incubation (in words) [4]: No degradation was observed even after overnight incubation
CCCCCCCCCCCC(C)(C)OC(=O)Oc1ccc(N(CCCCS(=O)(=O)[O-])CCCCS(=O)(=O)O)cc1.[Na+] [Compound 3196]	0.65	–	0.5%	time to degradation of 0.01% solution ([4]; 37° C. where stated): 30 min; degradation of 0.1% solution (in words) [4]: overnight
CCCCCCOc1ccc(COC(=O)NCCCS(=O)(=O)O)cc1 [Compound 3186]	–	0.45	–	solubility in aqueous solutions (in words) [3]: some solubility in aqueous solution; time to degradation of 0.01% solution ([4]; 37° C. where stated): ≤ 30 min
CCCCCCCCCCCCOc1ccc(/C=N/CCCS(=O)(=O)O)cc1 [Compound 3221]	0.13	0.5	0.5%	–
CCCCCCCCCCOc1ccc(C(OCCc2ccc(N(CCCCS(=O)(=O)[O-])CCCCS(=O)(=O)[O-])cc2)(c2ccccc2)c2ccc(OC)cc2)cc1.[Na+].[Na+] (stereo not shown) [Compound 3219]	–	–	1%	–
CCCCCC(OC(=O)NCCCS(=O)(=O)O)c1ccccc1 (stereo not shown) [Compound 3190]	–	0.34	0.5%	time to degradation of 0.01% solution ([4]; 37° C. where stated): 30 min; degradation of 0.1% solution (in words) [4]: overnight
CCCCCC/C=C/C(C)OC(=O)NCC(O)CS(=O)(=O)[O-].[Na+] (stereo not shown) [Compound 3203]	–	0.4	0.5%	degradation of 0.1% solution (in words) [4]: degraded after overnight incubation
CCCCCCCCCCC(OC(=O)NCCCS(=O)(=O)O)c1ccoc1 (stereo not shown) [Compound 3271]	0.9	–	1%	½-life [5, 6]: >350 h; ½-life [5, 7]: >>; acid-lability (in words) [4]: Just partially acid-labile; thermolability (in words) [4]: thermostable
CCCCCCCCCCCCC(OC(=O)NCCCS(=O)(=O)O)c1cc(OC)c(OC)c(OC)c1 (stereo not shown) [Compound 3267]	0.9	–	–	solubility (concentration dissolved to) [3]: 2%; degradation by acid (0.5% TFA) or by heat (boiling), in words [4]: Did not degrade in 0.5% TFA or by boiling
CCCCCC(OC(=O)SCCS(=O)(=O)O)c1ccccc1 (stereo not shown) [Compound 3207]	–	–	0.5%	time to degradation of 0.01% solution ([4]; 37° C. where stated): ≤ 60 min
CCCCCC/C=C/C(C)OC(=O)Oc1ccc(NCCCS(=O)(=O)[O-])cc1.[Na+] (stereo not shown) [Compound 3209]	2.1	–	0.5%	degradation after overnight incubation (in words) [4]: No degradation was observed even after overnight incubation
CCCCCCCC(C)(C)OC(=O)Oc1ccc(NCCCS(=O)(=O)[O-])cc1.[Na+] [Compound 3210]	0.3	–	0.5%	degradation rate (grade in words) [4]: moderate
CCCCCCCCCCC(OC(=O)NCCCS(=O)(=O)[O-])c1ccc(OC)cc1.[Na+] (stereo not shown) [Compound 3212]	1.4	–	–	½-life ([5]; surfactant conc. 0.0025% in 50 mM ammonium bicarbonate): 3.7 h; ½-life [5, 6]: 21 h; ½-life ([5]; surfactant conc. 0.10% in 50 mM ammonium bicarbonate): 38 h; ½-life [5, 7]: >>; solubility (concentration dissolved to) [3]: 1%; time to degradation in 0.5% TFA ([4]; 0.5% TFA, 37° C. where stated, 0.1% solution for 3220 and 3266): 15 min; time to degradation by boiling without TFA ([4]; boiling without TFA): 5 min
CCCCCCCCCCCc1ccc(C(OCCc2ccc(N(CCCCS(=O)(=O)[O-])CCCCS(=O)(=O)[O-])cc2)(c2ccccc2)c2ccc(OCCCCCCCCCC)cc2)cc1.[Na+].[Na+] (stereo not shown) [Compound 3216]	–	0.7	–	solubilized in DMSO to [3]: 10%; solubility in aqueous solutions (in words) [3]: Insoluble in aqueous solutions
